Source: ChEMBL document CHEMBL1201862, “PubChem BioAssay data set” (2004)
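Following 48 hours of exposure in 96-well plates, responses at five concentrations were used to interpolate endpoints linearly. GI50 = concentration required for 50% inhibition of growth.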 Activity calls are given as the source filed them. Rule as the data show it: active = GI50 up to about 1.1 µM and inactive = higher.

What was measured:
Test in all cases: DTP human tumour cell line panel, 48 h
A549 = system: A549
ACHN = system: ACHN
CAKI-1 = system: CAKI-1
EKVX = system: EKVX
HCC 2998 = system: HCC 2998
HCT-116 = system: HCT-116
HT-29 = system: HT-29
Hs-578T = system: Hs-578T
M14 = system: M14
M19-MEL = system: M19-MEL
MOLT-4 = system: MOLT-4
NCI-H460 = system: NCI-H460
OVCAR-8 = system: OVCAR-8
PC-3 = system: PC-3
RXF 393 = system: RXF 393
SK-MEL-5 = system: SK-MEL-5
SNB-19 = system: SNB-19
SW-620 = system: SW-620
T47D = system: T47D
UACC-257 = system: UACC-257

Measured: GI50

CCOC(=O)N1C/C(=C\c2ccccc2)C(=O)/C(=C/c2ccccc2)C1
inactive: A549 12300 nM | ACHN 3840 nM | CAKI-1 2220 nM | EKVX 10600 nM | HCC 2998 1940 nM | HCT-116 1140 nM | HT-29 1490 nM | Hs-578T 2400 nM | M14 2770 nM | M19-MEL 1570 nM | MOLT-4 1960 nM | NCI-H460 4000 nM | OVCAR-8 2820 nM | PC-3 2160 nM | RXF 393 4010 nM | SK-MEL-5 2970 nM | SNB-19 4720 nM | SW-620 1400 nM | T47D 3650 nM | UACC-257 4460 nM
